Source: patent US11453671B2, “Pyrazolopyrimidine inhibitors of JAK kinases and uses thereof” (Genentech, Inc., priority 2020, dated 2022)

What was measured:
[1] = molecular target: T1, recombinant human JAK1 kinase domain protein (Residues 854-1154) (Homo sapiens, UniProt P23458); experiment: JAK1 biochemical assay (microfluidic mobility shift, peptide phosphorylation); details: 25 μM ATP, 1 nM total JAK1; read-out: Enzyme JAK1 Ki
T1 construct: human JAK1 kinase domain protein (Residues 854-1154); purchased Proteros Biostructures GmbH (Martinsried, Germany); host or cells: insect cells
T1 sequence (P23458 854-1154): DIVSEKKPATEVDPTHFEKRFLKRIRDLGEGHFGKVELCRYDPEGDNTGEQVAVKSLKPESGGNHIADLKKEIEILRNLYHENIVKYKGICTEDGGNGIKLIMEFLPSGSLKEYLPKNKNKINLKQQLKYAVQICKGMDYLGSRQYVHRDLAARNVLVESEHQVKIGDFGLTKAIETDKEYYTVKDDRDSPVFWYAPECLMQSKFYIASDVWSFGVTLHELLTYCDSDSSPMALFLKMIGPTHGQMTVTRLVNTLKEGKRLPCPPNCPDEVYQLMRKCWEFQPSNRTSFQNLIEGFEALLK
Excerpt: JAK1 and JAK2 Biochemical Assays

[2] = tested on: JAK1 pathway: P-STAT6 in TF-1 human erythroleukemia cells + IL-13; experiment: P-STAT6 TF-1+Interleukin-13 (IL-13) assay; format: cell-based; details: Homo sapiens, TF-1, TF-1 cells, IL-13 stimulation; read-out: Cellular JAK1 PSTAT6 TF-1 + IL13 IC50
[3] = tested on: JAK2 pathway: P-STAT5 in TF-1 human erythroleukemia cells + EPO; experiment: P-STAT5 TF-1+Erythropoietin (EPO) assay; format: cell-based; details: Homo sapiens, TF-1, TF-1 cells, EPO stimulation; read-out: Cellular JAK2 PSTAT5 TF-l + EPO IC50
[4] = Cell cytotoxicity assay HEK-293T (CellTiter-Glo, 72 hours); format: cell-based; details: human, HEK-293T cells, Table 3; 72 hours, top concentration of 50 μM; read-out: Cytotox K-293 EC50
Method in brief: (§1)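 HEK-293T or Jurkat E6-1 cells plated at 450 cells/well were treated the next day with a 10-point titration from 50 μM top (0.5% DMSO final). After 72 h at 37° C, viability was read by CellTiter-Glo luminescence.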

[5] = Cell cytotoxicity assay Jurkat (CellTiter-Glo, 72 hours); format: cell-based; details: human, Jurkat clone E6-1 cells, Table 3; 72 hours, top concentration of 50 μM; read-out: Cytotox Jurkat EC50
Method in brief: as §1

[6] = molecular target: Recombinant human JAK2 kinase domain protein (Residues 812-1132) (Homo sapiens, UniProt O60674); experiment: JAK2 biochemical assay (microfluidic mobility shift, peptide phosphorylation); details: Enzyme JAK2 Ki (nM), 25 μM ATP, 0.2 nM total JAK2
Sequence of Recombinant human JAK2 kinase domain protein (Residues 812-1132) (O60674 812-1132): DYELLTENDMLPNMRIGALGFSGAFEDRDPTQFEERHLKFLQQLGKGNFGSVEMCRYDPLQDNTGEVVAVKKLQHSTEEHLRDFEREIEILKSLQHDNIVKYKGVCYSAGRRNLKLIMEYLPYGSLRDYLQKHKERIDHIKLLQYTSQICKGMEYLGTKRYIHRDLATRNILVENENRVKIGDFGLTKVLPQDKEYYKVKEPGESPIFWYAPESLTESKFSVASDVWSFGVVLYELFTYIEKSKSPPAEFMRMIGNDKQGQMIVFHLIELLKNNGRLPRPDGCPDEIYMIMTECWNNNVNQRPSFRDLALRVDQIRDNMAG
Procedure: The in vitro biochemical assays quantify JAK-catalyzed phosphorylation of a synthetic peptide, as detected using a LabChip® EZ Reader II microfluidic mobility shift instrument (PerkinElmer; Waltham, Mass.). […] Y-1B is fluorescently labeled on the N-terminus with 5-FAM (5-carboxyfluorescein) and contains a single tyrosine residue (Y) that can be phosphorylated by JAK activity. The substrate peptide stock is prepared in DMSO at 5 mM.
In each titration experiment, test compound was tested in duplicate at each of the twelve concentrations. Blank reactions contained ATP, peptide, and DMSO, but no JAK or test compound, whereas uninhibited control reactions contained ATP, peptide, JAK, and DMSO, but no test compound.
Peptide plus ATP mixture (24 μL) was added to 1 μL of test compound in DMSO (or DMSO alone). The reactions were initiated by adding 25 μL of JAK enzyme to the inhibitor/peptide/ATP mixture before thoroughly mixing the resultant solution. Reactions were incubated at room temperature (22° C.-23° C.) in a final volume of 50 μL per well in 384-well plates.
In each reaction, the residual Y-1B substrate and the phospho-peptide product generated were separated using the EZ Reader II instrument. Electrophoretic separation of molecules of product from molecules of substrate was achieved using downstream and upstream voltages of −500 and −2600 V, respectively, at an operating pressure of −1.3 psi.
The extent (or percent) of conversion of substrate to product was calculated from the corresponding peak heights in the electropherogram using HTS Well Analyzer software, Version 5.2 (PerkinElmer), and the following equation (Equation 1): % conversion=[P÷(S+P)]×100 Equation 1 where S and P represent the peak heights of the substrate and product, respectively. After any baseline signal from blank wells containing no JAK was subtracted from the signal of all test wells, the % conversion data were converted to fractional activity as shown in Equation 2, where vi and vo are the % conversion in the presence and absence of test compound, respectively.

Row | SMILES | Ki [1] [nM] | IC50 [2] [nM] | IC50 [3] [nM] | EC50 at 72 h [4] [nM] | EC50 at 72 h [5] [nM] | Ki [6] [nM]
1 | Cn1cc(NC(=O)c2cnn3cccnc23)c(-c2cc(S(=O)(=O)c3cn[nH]c3)ccc2OC(F)F)n1 [Example 41, N-[3-[2-(difluoromethoxy)-5-(1H-pyrazol-4-ylsulfonyl)phenyl]-1-methyl-pyrazol-4-yl]pyrazolo[1,5-a]pyrimidine-3-carboxamide] | 0.18 | 15 | 34 | 28000 | 35000 | 0.1
2 | Cn1cc(NC(=O)c2cnn3cccnc23)c(-c2cc(S(=O)(=O)c3ccn(C)c(=O)c3)ccc2OC(F)F)n1 [Example 44, N-[3-[2-(difluoromethoxy)-5-[(1-methyl-2-oxo-4-pyridyl)sulfonyl]phenyl]-1-methyl-pyrazol-4-yl]pyrazolo[1,5-a]pyrimidine-3-carboxamide] | 0.52 | 14 | 15 | 7000 | 11000 | 0.34
3 | N#CCn1cc(NC(=O)c2cnn3cccnc23)c(-c2cc(S(=O)(=O)C3CC3)ccc2OC(F)F)n1 [Example 45, N-[1-(cyanomethyl)-3-[5-cyclopropylsulfonyl-2-(difluoromethoxy)phenyl]pyrazol-4-yl]pyrazolo[1,5-a]pyrimidine-3-carboxamide] | 0.71 | 10 | 38 | ≥ 50000 | ≥ 50000 | 0.35
4 | Cn1cc(NC(=O)c2cnn3cccnc23)c(-c2cc3c(cc2OC(F)F)NCCS3(=O)=O)n1 [Example 46, N-[3-[6-(difluoromethoxy)-1,1-dioxo-3,4-dihydro-2H-1lambda6,4-benzothiazin-7-yl]-1-methyl-pyrazol-4-yl]pyrazolo[1,5-a]pyrimidine-3-carboxamide] | 0.26 | 27 | 61 | ≥ 50000 | ≥ 50000 | 0.087
5 | CN(C)CCn1cc(S(=O)(=O)c2ccc(OC(F)F)c(-c3nn(C)cc3NC(=O)c3cnn4cccnc34)c2)cn1 [Example 49, N-[3-[2-(difluoromethoxy)-5-[1-[2-(dimethylamino)ethyl]pyrazol-4-yl]sulfonyl-phenyl]-1-methyl-pyrazol-4-yl]pyrazolo[1,5-a]pyrimidine-3-carboxamide] | 0.5 | 20 | 34 | 14000 | 24000 | 0.37
6 | C[C@H](Cn1cc(S(=O)(=O)c2ccc(OC(F)F)c(-c3nn(C)cc3NC(=O)c3cnn4cccnc34)c2)cn1)N(C)C [Example 59, N-[3-[2-(difluoromethoxy)-5-[1-[(2R)-2-(dimethylamino)propyl]pyrazol-4-yl]sulfonyl-phenyl]-1-methyl-pyrazol-4-yl]pyrazolo[1,5-a]pyrimidine-3-carboxamide] | 0.53 | 13 | 28 | 14000 | 30000 | 0.54
